The record followed here is patent US6576263B2, “Delivery systems using preformed biodegradable polymer compositions and methods” (3M Innovative Properties Company, priority 2000, dated 2003).

Common to all, as to assay type: physicochemical
The nature of data set [1]: Release of 5-fluorouracil from plug made with 5FU mixed with the crosslinker and albumin. As to conditions: over an 8-hr period; 5FU added with crosslinker, PBS pH 7.4, room temperature.
Description: 136 mg of PEG-(SS)2 crosslinker was dissolved in 1 ml of a 1.04 mg/ml 5-Fluorouracil solution. This solution was then mixed into 1 ml of 30% albumin solution (see Example 2) already in a 5-ml form. The resulting hydrogel plug was removed from the form after 15 minutes and cut into three equal sized pieces (approximately 0.5 cm in thickness). Each piece was then placed into a vial and 4 ml of a PBS buffer (pH 7.4) added at sample time 0 (t0). The vials were maintained at room temperature and were shaken continuously. At each sample time, the entire content of the vial was removed and replaced with 4 ml of fresh PBS. Samples were taken at 1 hr, 2 hr, 4 hr, and 8 hr.
Data set [2] can be described thus: Release of 5FU from albumin plugs containing alginic acid with added calcium. As to conditions: over a 5-hr period; alginate/Ca/5FU in albumin plug, PBS pH 7.4. On the procedure:
(§1) One ml of 1.04 mg/ml 5-fluorouracil was mixed with 30 mg of alginic acid. The pH of the mixture was brought to 6.8, and 150 μl of a saturated calcium chloride/water solution was added to gel the alginate. The gel was divided into 3 approximately equal volumes and then placed into a vacuum desiccator with DRIERITE to dry for 24 hr. The resulting alginate/Ca/5FU films were ground up and mixed into the 30% albumin solution (see Example 2) just prior to being placed into the 5-ml forms and crosslinked with an equivalent volume of PEG-(SS)2 crosslinker (136 mg/ml). Each plug was placed into a separate vial, and five mls of phosphate buffered saline (PBS), at pH 7.4, was added at sample time 0 (t0). The vials were maintained at room temperature and were shaken continuously. At each sample time, the entire content of the vial was removed and replaced with 5 ml of fresh PBS. Samples were taken at 1 hr, 2 hr, 3 hr, 4 hr, 5 hr, and 24 hr.
The 5FU was analyzed as described in Example 1.

Data set [3] is described as follows: Release of 5FU from preformed, dried albumin/PEG-(SS)2 plugs reconstituted with 5FU solution. As to conditions: rehydrated albumin/PEG-(SS)2 plug, PBS pH 7.4, room temperature. How it is done: Two polymer plugs were preformed in a modified 5-milliliter (ml) poly syringe, wherein the syringe barrel was cut to form an open cylindrical receptacle, and then by mixing 0.5 ml of 29% albumin solution (obtained from American Biological Technology, Seguin, Tex. or by diafiltration (Procedure B) as described above) and 0.5 ml of 136 mg/ml PEG-(SS)2 crosslinker. After crosslinking was complete (15 minutes) the plugs were removed from the syringe and pushed out. The polymer plugs were dried under vacuum for 24 hours (hr). The plugs were reconstituted with […] of a 5FU solution (1.04 mg/ml from Sigma Chemical Co, St. Louis, Mo.) so that each plug contained a total of 187.6 micrograms (μg), or 165.5 μg of 5FU. Each plug was placed into a separate vial, and five ml of phosphate buffered saline (PBS), at pH 7.4, were added at sample time 0 (t0). The vials were maintained at room temperature and were shaken continuously. At each sample time, the entire content of the vial was removed and replaced with 5 ml of fresh PBS. Samples were taken at 0.25 hr, 0.5 hr, 1 hr, 2 hr, 3 hr, 4 hr, 5 hr, 6 hr, and 24 hr. Ana of 5FU was analyzed by high-pressure liquid chromatography, following the method of Bernatchez et al., Int. J. Pharm., 106, 161-166 (1994).

Data set [4] can be described thus: Release of 5FU from albumin plugs containing alginic acid without added calcium. As to conditions: over a 5-hr period; alginate/5FU without calcium in albumin plug, PBS pH 7.4. How it is done:
as §1, with “One milliliter” for “One ml”, “and” for “and 150 μl of a saturated calcium chloride/water solution was added to gel the alginate. The gel was divided into 3 approximately equal volumes and”, “resulting alginate/5FU film was” for “resulting alginate/Ca/5FU films were”, “the 5 ml syringe” for “the 5-ml”, “and 5 ml” for “and five mls”
The 5FU was analyzed as in Example 1.

Data set [5] is described as follows: Release of cefazolin from albumin plugs made with 4-arm PEG crosslinker. As to conditions: albumin/4-arm PEG plug, PBS pH 7.4, room temperature. On the procedure:
Two polymer plugs were preformed from 0.5 ml of 30% albumin solution (Procedure B) and 0.5 ml of 110 mg/ml 4-arm-N-hydroxysuccinimidyl ester of poly(ethylene glycol)-succinate crosslinker (Shearwater Polymers, Inc., Huntsville, Ala.). Approximately 10 mg of sodium cefazolin (Sigma Chemical. Co., St. Louis, Mo.) was dissolved in the albumin before the crosslinker was added to form the cylindrical plugs. Each formed plug was placed into a separate vial, and 8 mls of phosphate buffered saline (PBS) at pH 7.4 was added at sample time (t0). The vials were maintained at room temperature and were shaken continuously. At each sample time, the entire content of the vial was removed and replaced with eight ml of fresh PBS. Samples were taken at 0.25, 0.5, 1, 2, 3, 4, 5, and 24 hours and approximately every 24 hours thereafter up to 144 hours.
Cefazolin was analyzed by high-pressure liquid chromatography, following the method of Liang et al, J. Chromatog. B., 656, 45-465 (1994). The column was a Waters C-18 (3.9×300 mm) column sold under the tradename MICROBONDAPAK and the column temperature was maintained at 25° C. The mobile phase consisted of 0.02M sodium phosphate buffer (pH=5.0 and methanol (77:23). The wavelength used for detection was 270 nm and the column flow rate was 1.0 ml/min.

As for `O=c1[nH]cc(F)c(=O)[nH]1` [Example 5FU, 5-fluorouracil], the 5-fluorouracil released result in data set [1] is recorded as “about 55%”. The 5FU released entry in data set [2] is “about 60%”; in data set [4], “about 40%”. Moreover, the “time period over which 5FU was released” value in data set [3] was found to be 5 h.
Regarding `Cc1nnc(SCC2=C(C(=O)O)N3C(=O)[C@@H](NC(=O)Cn4cnnn4)[C@H]3SC2)s1` [cefazolin], the total cefazolin released in data set [5] (over 144 hours) is 95.6%. Besides, the cefazolin released entry in data set [5] (over the first 5-hour time period) is recorded as “approximately 67%”.
